According to patent US20040023984A1, “Compounds for the treatment of alzheimer's disease” (priority 1987, published 2004):
Several values for one entry are separate records, joined by “and”; a condition that tells them apart may be missing. Equal entries are not always repeated. Where two headings read alike, the source gives them in different places.

What was measured:
[1] = target: T1, acetylcholinesterase (Homo sapiens, UniProt P22303); experiment: Inhibition of acetylcholinesterase, procedure of Ellman (acetylthiocholine substrate, photometric); format: biochemical; conditions: for cholinesterase inhibition at 10^−5 M: further compounds; for inhibition at 1 µM: read-out: inhibition of acetylcholinesterase at concentration 10^−6 molar; for inhibition at 0.001 µM: read-out: inhibition of acetylcholinesterase at concentration 10^−9 molar
T1 sequence (P22303 32-614, species assumed): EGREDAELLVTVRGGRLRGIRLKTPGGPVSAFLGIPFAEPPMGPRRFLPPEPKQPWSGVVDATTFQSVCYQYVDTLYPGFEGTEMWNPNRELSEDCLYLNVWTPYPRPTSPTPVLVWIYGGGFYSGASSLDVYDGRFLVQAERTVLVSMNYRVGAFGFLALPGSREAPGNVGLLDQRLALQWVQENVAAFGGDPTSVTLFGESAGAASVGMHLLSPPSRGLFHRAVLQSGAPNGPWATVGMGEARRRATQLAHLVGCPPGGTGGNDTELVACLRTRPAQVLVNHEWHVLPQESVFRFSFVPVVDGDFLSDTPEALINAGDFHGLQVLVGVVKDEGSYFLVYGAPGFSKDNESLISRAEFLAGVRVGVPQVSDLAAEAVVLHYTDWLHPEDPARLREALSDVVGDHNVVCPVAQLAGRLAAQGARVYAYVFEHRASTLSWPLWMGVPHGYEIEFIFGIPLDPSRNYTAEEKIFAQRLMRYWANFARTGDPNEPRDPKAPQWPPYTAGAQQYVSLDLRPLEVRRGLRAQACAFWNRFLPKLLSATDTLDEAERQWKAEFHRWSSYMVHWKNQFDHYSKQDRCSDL
Procedure: The anticholinesterase activity of the compounds prepared in the above examples was assayed by an assay for inhibition of acetylcholinesterase following the procedure of G. Ellman, […], 7:88-95 (1961) Acetylthiocholine serves as substrate since it acts like acetylcholine. Acetylcholinesterase cleaves it to thiocholine and acetate which react with dithiobisnitrobenzoate to form a yellow color which is measured photometrically.
This assay was carried out at dilution of 10^−5 molar
The compounds were tested in the assay described after Example 5 but at different concentrations. The results obtained were as follows:
Further compounds were prepared by methods analogous to those described above and were tested in a cholinesterase assay as described above.

[2] = test system: scopolamine induced memory deficit; experiment: Scopolamine dementia dark avoidance test (passive avoidance); format: in vivo, male CFW mice
Procedure: Furnished data on the effects of these compound on cholinesterase activity were used to determine doses for testing. […] The two other compounds were tested at 1,3 and 10 mg/kg sc and did antagonize the scopolamine induced deficit.
Training and testing of passive avoidance were conducted in a two-compartment (light/dark) test cage. On the training day, mice were individually placed in the light half of the cage and after entering the dark compartment, were administered a 3 sec 0.4 mA footshock. They were then removed from the test chamber and returned to their home cages. Twenty-four hours later, the animals were again placed in the lighted half of the test cage and the latency to enter the dark compartment was measured.
All animals in each group of 15 naive male CFW mice were injected twice subcutaneously. Thirty minutes prior to training, animals were administered 3 mg/kg scopolamine HBr or its 0.9% NaCl vehicle. Five minutes prior to training, independent groups were administered one of three doses of the test compounds or the distilled water vehicle. One group in each experiment received vehicle twice, another group received scopolamine and the dH2O vehicle; the remaining groups received scopolamine and a test compound.
A cutoff value (CO), defined as the second-longest latency in the scopolamine/vehicle treated group, was used to determine whether a compound was active. If 20% or more of the animals in a treatment group had latencies greater than the CO value, the compound was considered active at that dose.
The three compounds were tested in two separate experiments; the results are presented below in Tables 1 and 2. Doses considered active are marked with an asterisk (*).

[3] = test system: nucleas basalis-lesioned animals; experiment: Nucleus basalis model, passive avoidance in shuttle box; format: in vivo, mice; conditions: nucleus basalis model, mice, drug given three and ½ hours before learning trials
Excerpt: The following test provides a good animal model for Alzheimer's disease in humans: A selective lesion is placed in a subcortical nucleus (nucleus basalis of Meynert) with a resultant cortical cholinergic deficiency, similar in magnitude to that seen in early to moderate stage Alzheimer's disease. Numerous behavioral deficits, including the inability to learn and retain new information, characterizes this lesion. Drugs that can normalize these abnormalities would have a reasonable expectation of efficacy in Alzheimer's disease. Haroutunian, V, Kanof P, Davis, K L: Pharmacological alleviations of cholinergic-lesion-induced memory defects in rats. Life Sciences, 37:945-952 (1985).
Galanthamine n-butyl carbamate was tested in the nucleus basalis model for galanthamine discussed in the Hartounian et al paper noted above. In the test, mice were given the drug three and ½ hours before two learning trials in a shuttle box. They are placed in the lighted compartment and receive an electric footshock when they cross into the preferred side, the dark. The next day, they are again placed in the lighted compartment and the time to enter the dark is noted. The latency to enter the dark compartment is the basis for this figure. […] Below 50 mg/kg no side effects were noted.

[4] = target: T1, acetylcholinesterase; experiment: biochemical
[5] = test system: mice; experiment: Profile of Observable Effects (POE), peripheral cholinergic effects; conditions: subcutaneous
Procedure: A number of compounds were also evaluated in a standardized Profile of Observable Effects (POE) which involves administering drug to animal in increasing amounts and observing this for up to two hours to see whether peripheral cholinergic effects such as tremor, lacrimation, salivation, pilo erection, defection or red eye occur.

[6] = Solubility noted on isolation of the product; format: physicochemical
[7] = target: T1, acetylcholinesterase; experiment: Acetylcholinesterase Inhibition Assay (other cholinesterase activity tests, may be less reliable); format: biochemical; conditions: results may be less reliable
[8] = test system: cholinesterase; conditions: Irwin and Smith, Arch. Int. Pharmacodyn. 127:314-330; cited from earlier work
[9] = Table 1, scopolamine + 0.3 mg/kg sc, cut-off 38 seconds
[10] = Table 1, scopolamine + 2.0 mg/kg sc, cut-off 38 seconds
[11] = Table 1, scopolamine + 3.0 mg/kg sc, cut-off 38 seconds
[12] = 10^−5 molar, read-out: inhibition of acetylcholinesterase at concentration 10^−5
[13] = Table 2, scopolamine + 1 mg/kg sc, cut-off 41 seconds
[14] = Table 2, scopolamine + 3 mg/kg sc, cut-off 41 seconds
[15] = Table 2, scopolamine + 10 mg/kg sc, cut-off 41 seconds
[16] = dilution of 10^−5 molar, read-out: PERCENT INHIBITION OF ACETYLCHOLINESTERASE

Molecule: 4,5-dehydrogalanthamine
- cholinesterase inhibition at 10^−5 M [1]: 30

Molecule: COc1ccc2c3c1OC1CC(O)C=C[C@@]31CCNC2 (single isomer, unassigned; (-)) [N-demethyl galanthamine, (−) N-demethylgalanthamine]
- # > CO/n [2, 9]: 0/15
- % > CO [2, 9]: 0%
- Mean Latency [2, 9]: 21 s
- # > CO/n [2, 10]: 2/15
- % > CO [2, 10]: 13%
- Mean Latency [2, 10]: 33 s
- # > CO/n [2, 11]: 2/15
- % > CO [2, 11]: 13%
- Mean Latency [2, 11]: 26 s
- antagonism of scopolamine induced memory deficit ([2]; doses of 0.3, 1.0 and 3.0 mg/kg): inactive

Molecule: COc1ccc2c3c1OC1CC(N)CCC31CCN(C)C2 (stereo not shown) [2-amino-2-dehydroxy lycoramine]
- cholinesterase inhibition at 10^−5 M [1]: 17

Molecule: COc1ccc2c3c1OC1CC(I)CCC31CCN(C)C2 (stereo not shown) [2-iodo-2-dehydroxy lycoramine]
- cholinesterase inhibition at 10^−5 M [1]: 15

Molecule: COc1ccc2c3c1O[C@H]1CC(O)C=C[C@@]31CCN(C)C2 (stereo partly shown) [Galanthamine, reference compound]
- best dose in passive avoidance test [3]: 3 mg/kg

Molecule: COc1ccc2c3c1OC1CC(O)CCC31CCNC2 (stereo not shown) [N-demethyl lycoramine]
- inhibition of acetylcholinesterase at concentration 10^−5 ([1]; 10^−5 molar): inactive

Molecule: CN1CC[C@@]23C=C[C@H](O)CC2Oc2c(O)ccc(c23)C1 (stereo partly shown) [O-demethyl-galanthamine, O-demethyl galanthamine]
- inhibition at 10 µM [1, 12]: ≥ 100%
- inhibition at 1 µM [1]: 89%
- inhibition at 0.001 µM [1]: 55%

Molecule: CNC(=O)Oc1ccc2c3c1OC1CC(O)C=CC31CCN(C)C2 (stereo not shown) [O-demethyl-galanthamine-13-methyl carbamate]
- IC50 ([4]; IC50, acetyl cholinesterase inhibition, S 0.3 mM): 2 nM
- IC50 ([4]; IC50, acetyl cholinesterase inhibition, S 5 mM): 2 nM
- POE, mice showing peripheral cholinergic effects ([5]; 0.31 mg/kg): not noted in any of four mice
- POE, mice showing peripheral cholinergic effects ([5]; 0.63 mg/kg): noticeable in one mouse out of four
- POE, mice showing peripheral cholinergic effects ([5]; 1 mg/kg): in all four mice

Molecule: COc1ccc2c3c1O[C@H]1C[C@@H](OC(C)=O)C=C[C@@]31CCN(C)C2 [Product of Example 2, Galanthamine acetate]
- # > CO/n [2, 13]: 1/15
- % > CO [2, 13]: 7%
- Mean Latency [2, 13]: 21 s
- # > CO/n [2, 14]: 4/15
- Mean Latency [2, 14]: 38 s
- % > CO ([2]; Table 2, scopolamine + 3 mg/kg sc, cut-off 41 seconds, * = dose considered active): 27* %
- # > CO/n [2, 15]: 3/15
- Mean Latency [2, 15]: 31 s
- % > CO ([2]; Table 2, scopolamine + 10 mg/kg sc, cut-off 41 seconds, * = dose considered active): 20* %
- antagonism of scopolamine induced memory deficit ([2]; doses of 3 and 10 mg/kg sc): active
- inhibition at 10 µM [1, 16]: 37%

Molecule: COc1ccc2c3c1O[C@H]1C[C@@H](OC(=O)Nc4ccccc4)C=C[C@@]31CCN(C)C2 [Product of Example 3]
- inhibition at 10 µM [1, 16]: 37%

Molecule: COc1ccc2c3c1OC1CC(OC(=O)Nc4cccc5ccccc45)C=CC31CCN(C)C2 (stereo not shown) [Product of Example 4]
- PERCENT INHIBITION OF ACETYLCHOLINESTERASE ([1]; dilution of 10^−5 molar): 60%

Molecule: COc1ccc2c3c1O[C@H]1C[C@@H](O)CC[C@@]31CCN(C)C2 [Product of Example 5]
- inhibition at 10 µM [1, 16]: 30%

Molecule: COc1ccc2c3c1O[C@H]1C[C@@H](O[Si](C(C)C)(C(C)C)C(C)C)C=C[C@@]31CCN(C)C2 [Product of Example 7]
- solubility in alcohols [6]: soluble
- inhibition of acetylcholinesterase at concentration 10^−5 ([1]; 10^−5 molar): 17

Molecule: COc1ccc2c3c1OC1C[C@H](Cl)C=C[C@@]31CCN(C)C2 (stereo partly shown) [Product of Example 10]
- inhibition at 10 µM [1, 12]: 73%

Molecule: COC1C=C[C@@]23CCN(C)Cc4ccc(O)c(c42)OC3C1 (stereo partly shown) [childanthine]
- IC50 ([4]; read-out: IC50, acetyl cholinesterase inhibition): 310 nM and 80 nM

Molecule: COc1ccc2c3c1O[C@H]1C[C@@H](OC(=O)C4CC4)C=C[C@@]31CCN(C)C2 [cyclopropyl carbinol ester]
- % Inhibition at 10^−6 [7]: 13%
- % Inhibition at 10^−7 [7]: 0%
- % Inhibition at −10^−5 [7]: 40%

Molecule: COc1ccc2c3c1OC1CCCC[C@@]31CCN(C)C2 (stereo partly shown) [deoxylycoramine]
- cholinesterase activity [8]: some activity

Molecule: COc1ccc2c3c1O[C@H]1C[C@H](OC(C)=O)C=C[C@@]31CCN(C)C2 [epigalanthamine acetate (from Example 8), epigalanthamine acetate]
- solubility in alcohols [6]: soluble
- inhibition at 10 µM [1, 12]: 21%

Molecule: CCNC(=O)O[C@H]1C=C[C@@]23CCN(C)Cc4ccc(OC)c(c42)O[C@H]3C1 [ethyl carbaxnate]
- % Inhibition at 10^−6 [7]: 70%
- % Inhibition at 10^−7 [7]: 9%
- % Inhibition at −10^−5 [7]: 59%

Molecule: COc1cc2c3c(c1)OC1C[C@@H](O)C=C[C@@]31CC[N+](C)(Cc1ccccc1)C2.[Br-] (stereo partly shown) [galanthamine benzyl bromide]
- solubility in alcohols [6]: soluble
- inhibition at 1 µM [1]: 77%
- inhibition at 0.001 µM [1]: 40%

Molecule: COc1ccc2c3c1O[C@H]1C[C@@H](O)C=CC31CC[N+](C)(C)C2.[I-] (stereo partly shown) [galanthamine methiodide]
- solubility in cold water ([6]; cold water): slightly soluble
- solubility in hot water ([6]; hot water): soluble

Molecule: CCCCCC(=O)O[C@H]1C=C[C@@]23CCN(C)Cc4ccc(OC)c(c42)O[C@H]3C1 [hexanoic ester]
- % Inhibition at 10^−6 [7]: 30%
- % Inhibition at 10^−7 [7]: 36%
- % Inhibition at −10^−5 [7]: 55%

Molecule: COc1ccc2c3c1O[C@H]1C[C@@H](OC(=O)CC(C)C)C=C[C@@]31CCN(C)C2 [iso-valeroyl ester]
- % Inhibition at 10^−6 [7]: 39%
- % Inhibition at 10^−7 [7]: 13%
- % Inhibition at −10^−5 [7]: 33%

Molecule: CC(C)OC(N)=O [isopropyl carbamate]
- % Inhibition at 10^−6 [7]: 0%
- % Inhibition at 10^−7 [7]: 0%
- % Inhibition at −10^−5 [7]: 21%

Molecule: COc1ccc2c3c1OC1CC(OC(C)=O)CCC31CC[N+](C)(C)C2.[I-] (stereo not shown) [lycoramine acetate methiodide]
- cholinesterase activity [8]: ineffective

Molecule: CCCOC(N)=O [n-propyl carbamate]
- % Inhibition at 10^−6 [7]: 50%
- % Inhibition at 10^−7 [7]: 21%
- % Inhibition at −10^−5 [7]: 34%

Molecule: COc1cc2c3c(c1)OC1C/C(=N/NC(N)=O)C=C[C@@]31CCN(C)C2 (stereo partly shown) [narwedine semicarbazone]
- solubility in alcohols [6]: soluble
- inhibition of acetylcholinesterase at concentration 10^−5 ([1]; 10^−5 molar): inactive

Molecule: COc1ccc2c3c1OC1C(O)CC=C4C(C2)[N+](C)(C)CCC431.[I-] (stereo not shown) [neopin methiodide]
- cholinesterase activity [8]: ineffective

Molecule: COc1ccc2c3c1O[C@H]1C[C@@H](OC(=O)c4ccccc4F)C=C[C@@]31CCN(C)C2 [o-F-benzoic ester]
- % Inhibition at 10^−6 [7]: 39%
- % Inhibition at 10^−7 [7]: 37%
- % Inhibition at −10^−5 [7]: 27%

Molecule: CCCCCCCCOC(N)=O [octyl carbamate]
- % Inhibition at 10^−6 [7]: 35%
- % Inhibition at 10^−7 [7]: 16%
- % Inhibition at −10^−5 [7]: 55%

Molecule: CCCCC(=O)O[C@H]1C=C[C@@]23CCN(C)Cc4ccc(OC)c(c42)O[C@H]3C1 [valeric ester]
- % Inhibition at 10^−6 [7]: 35%
- % Inhibition at 10^−7 [7]: 37%
- % Inhibition at −10^−5 [7]: 41%

Molecule: deoxydemethyl lycoramine methiodide
- cholinesterase activity [8]: good activity

Molecule: lycoramine azide
- cholinesterase inhibition at 10^−5 M [1]: 25
